Data reported in PubChem BioAssay (NCI).
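How tested: cells in 96-well plates exposed to compound for 48 hours at five concentrations. The concentration for 50% growth inhibition is given as GI50. TGI denotes the concentration required for complete inhibition of growth.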

How the values were obtained:
Assay in all cases: DTP human tumour cell line panel, 48 h
[1] = tested on: 786-0 renal
[2] = tested on: A498 renal
[3] = tested on: A549 NSCLC
[4] = tested on: ACHN renal
[5] = tested on: BT-549 breast
[6] = tested on: CAKI-1 renal
[7] = tested on: CCRF-CEM leukemia
[8] = tested on: COLO 205 colon
[9] = tested on: DU-145 prostate
[10] = tested on: EKVX NSCLC
[11] = tested on: HCC-2998 colon
[12] = tested on: HCT-116 colon
[13] = tested on: HCT-15 colon
[14] = tested on: HL-60(TB) leukemia
[15] = tested on: HOP-62 NSCLC
[16] = tested on: HOP-92 NSCLC
[17] = tested on: HS 578T breast
[18] = tested on: HT29 colon
[19] = tested on: IGROV1 ovarian
[20] = tested on: K-562 leukemia
[21] = tested on: KM12 colon
[22] = tested on: LOX IMVI melanoma
[23] = tested on: M14 melanoma
[24] = tested on: MALME-3M melanoma
[25] = tested on: MCF7 breast
[26] = tested on: MDA-MB-231 breast
[27] = tested on: MDA-MB-435
[28] = tested on: MOLT-4 leukemia
[29] = tested on: NCI-H226 lung
[30] = tested on: NCI-H23 lung
[31] = tested on: NCI-H460 lung
[32] = tested on: NCI-H522 lung
[33] = tested on: NCI/ADR-RES ovarian
[34] = tested on: OVCAR-3 ovarian
[35] = tested on: OVCAR-4 ovarian
[36] = tested on: OVCAR-5 ovarian
[37] = tested on: OVCAR-8 ovarian
[38] = tested on: PC-3 prostate
[39] = tested on: RPMI-8226 leukemia
[40] = tested on: RXF 393 renal
[41] = tested on: SF-268 CNS
[42] = tested on: SF-295 CNS
[43] = tested on: SF-539 CNS
[44] = tested on: SK-MEL-2 melanoma
[45] = tested on: SK-MEL-5 melanoma
[46] = tested on: SK-OV-3 ovarian
[47] = tested on: SN12C renal
[48] = tested on: SNB-19 CNS
[49] = tested on: SNB-75 CNS
[50] = tested on: SR leukemia
[51] = tested on: SW-620 colon
[52] = tested on: T-47D breast
[53] = tested on: TK-10 renal
[54] = tested on: U251 CNS
[55] = tested on: UACC-257 melanoma
[56] = tested on: UACC-62 melanoma
[57] = tested on: UO-31 renal

In the case of `CCn1cc(C(=O)N/N=C/c2cccc(F)c2)c(=O)c2cc(F)c(N3CCNC(C)C3)c(F)c21` (centres undefined), the GI50 [1] was 1630 nM, the TGI [1] was 3160 nM and the GI50 [2] was 1280 nM. It also gave a TGI [2] of 6360 nM, a GI50 [3] of 1740 nM and a TGI [3] of 3290 nM. It also gave a GI50 [4] of 1630 nM, a TGI [4] of 2990 nM and a GI50 [5] of 1620 nM. It also gave a TGI [5] of 3050 nM, a GI50 [6] of 1730 nM and a TGI [6] of 3150 nM. The GI50 [7] was 1550 nM, the TGI [7] was 3390 nM and the GI50 [8] was 1710 nM. For the same molecule, the TGI [8] was 3250 nM, the GI50 [9] was 1670 nM and the TGI [9] was 3050 nM. The GI50 [10] was 1600 nM, the TGI [10] was 3060 nM and the GI50 [11] was 1860 nM. For the same molecule, the TGI [11] was 3530 nM, the GI50 [12] was 1750 nM and the TGI [12] was 3470 nM. For the same molecule, the GI50 [13] was 1460 nM, the TGI [13] was 2840 nM and the GI50 [14] was 1880 nM. The TGI [14] was 3660 nM, the GI50 [15] was 1660 nM and the TGI [15] was 3090 nM. For the same molecule, the GI50 [16] was 1120 nM, the TGI [16] was 2420 nM and the GI50 [17] was 4400 nM. For the same molecule, the TGI [17] was 25500 nM, the GI50 [18] was 1550 nM and the TGI [18] was 2980 nM. The GI50 [19] was 1580 nM, the TGI [19] was 3160 nM and the GI50 [20] was 1040 nM. The TGI [20] was 2400 nM, the GI50 [21] was 1830 nM and the TGI [21] was 3390 nM. For the same molecule, the GI50 [22] was 1710 nM, the TGI [22] was 3210 nM and the GI50 [23] was 1820 nM. It also gave a TGI [23] of 3370 nM, a GI50 [24] of 1720 nM and a TGI [24] of 3230 nM. For the same molecule, the GI50 [25] was 1640 nM, the TGI [25] was 3180 nM and the GI50 [26] was 1680 nM. The TGI [26] was 3140 nM, the GI50 [27] was 1710 nM and the TGI [27] was 3120 nM. The GI50 [28] was 1750 nM, the TGI [28] was 3400 nM and the GI50 [29] was 1970 nM. It also gave a TGI [29] of 4130 nM, a GI50 [30] of 1830 nM and a TGI [30] of 3450 nM. For the same molecule, the GI50 [31] was 1680 nM, the TGI [31] was 3140 nM and the GI50 [32] was 1760 nM. The TGI [32] was 3320 nM, the GI50 [33] was 1810 nM and the TGI [33] was 3410 nM. The GI50 [34] was 1820 nM, the TGI [34] was 3400 nM and the GI50 [35] was 2020 nM. It also gave a TGI [35] of 4220 nM, a GI50 [36] of 1700 nM and a TGI [36] of 3100 nM. The GI50 [37] was 1760 nM, the TGI [37] was 3320 nM and the GI50 [38] was 1620 nM. For the same molecule, the TGI [38] was 3090 nM, the GI50 [39] was 1790 nM and the TGI [39] was 3770 nM. For the same molecule, the GI50 [40] was 1690 nM, the TGI [40] was 3220 nM and the GI50 [41] was 1800 nM. The TGI [41] was 3520 nM, the GI50 [42] was 1800 nM and the TGI [42] was 3290 nM. It also gave a GI50 [43] of 1590 nM, a TGI [43] of 2960 nM and a GI50 [44] of 1970 nM. It also gave a TGI [44] of 3860 nM, a GI50 [45] of 1750 nM and a TGI [45] of 3190 nM. It also gave a GI50 [46] of 1780 nM, a TGI [46] of 3280 nM and a GI50 [47] of 1620 nM. It also gave a TGI [47] of 3110 nM, a GI50 [48] of 1700 nM and a TGI [48] of 3150 nM. For the same molecule, the GI50 [49] was 1520 nM, the TGI [49] was 2870 nM and the GI50 [50] was 1330 nM. For the same molecule, the TGI [50] was 3140 nM, the GI50 [51] was 1680 nM and the TGI [51] was 3170 nM. It also gave a GI50 [52] of 1610 nM, a TGI [52] of 3250 nM and a GI50 [53] of 1730 nM. It also gave a TGI [53] of 3180 nM, a GI50 [54] of 1610 nM and a TGI [54] of 3030 nM. It also gave a GI50 [55] of 1670 nM, a TGI [55] of 3170 nM and a GI50 [56] of 1770 nM. It also gave a TGI [56] of 3200 nM, a GI50 [57] of 1460 nM and a TGI [57] of 2790 nM.
